# Assay results taken from patent US20200123127A1, “REMOVAL OF SENESCENCE-ASSOCIATED MACROPHAGES” (EVERON BIOSCIENCES, INC., priority 2016, published 2020).
# Where two headings read alike, the source gives them in different places.
# What was measured:
# [1] = test system: p16(Ink4a) expression in adipose tissue macrophages; assay: Poly(I:C) in chronologically aged p16Ink4a/Luc mice; assay type: in vivo, mouse
# Method: Given that macrophages contribute to the elevated p16(Ink4a) expression observed in aged mice, we investigated whether this expression was susceptible to immunomodulatory regulation. Chronologically aged mice (83-weeks old) were treated with Poly(I:C) and the luminescence of individual organs was quantitated via IVIS. […] Thus, the observed decrease in the luciferase signal in adipose tissue upon treatment with Poly(I:C) was not accompanied by the depletion of macrophages.
# [2] = test system: p16(Ink4a) expression in macrophages; assay: Immunomodulators in vivo in p16Ink4a/Luc mice bearing alginate-encapsulated cells; parameters: species or system mouse; conditions: for in vivo bioluminescence / elevated p16(Ink4a) expression: after 10 day induction of bioluminescence, Poly(I:C) 2 and 10 mg/kg intraperitoneally
# Method: Mice were injected intraperitoneally with a 200 μl solution of 15 mg/mL D-luciferin potassium salt (Syd Labs; Boston, Mass.) in D-PBS without calcium and magnesium. At 10 minutes post-injection, isoflurane-anesthetized mice were placed into the IVIS Spectrum in vivo bioluminescent imaging system (PerkinElmer; Waltham, Mass.) for detection of luciferase activity (60-second exposure). Bioluminescence in p16^LUC mice was quantified as total flux (p/s) of luminescent signal from the abdomen using via Living Image® software.
# We next investigated whether p16(Ink4a) expression was susceptible to M1-mediated regulation in vivo using immunotherapeutic agent Poly(I:C). Upon intraperitoneal injection of alginate-encapsulated cells, p16^Iak4a/Luc mice accumulate luciferase-positive macrophages that can be monitored in vivo via the IVIS imaging system. […] Further, treatment with Poly(I:C) had no effect on β-galactosidase activity nor viability (>95%) of lavage cells, consistent with in vitro data.
# NF-κB = NF-κB luciferase reporter in HT1080 cells; assay type: cell-based; conditions: HT1080 cells carrying IPTG-inducible p21
# [3] = test system: B16 melanoma lung metastasis in C57BL/6 mice; assay: Senescence-enhanced B16 lung metastasis model; assay type: in vivo, mouse
# Source text: FIG. 4. Efficacy of A1.1 analogs in the senescence-enhanced B16 metastasis model. (A) Quantification of metastatic nodules by H&E morphometric analysis, and the resulting reduction in tumor burden (%) compared to vehicle control. (B) Quantitation morphometric analysis of lungs excised from irradiated mice treated with analogs of A1.1 post-inoculation of B16 cell intravenously, along with quantitation of morphometric analysis, are provided. (C) In vitro testing of A1.1 and analogs against the growth and viability of B16 cells, as assessed by the resazurin viability assay after 72 hour exposure to compounds compared to non-treated controls.
# The role of senescent cells in the promotion of metastatic potential of cancer cells has also been described [Patent WO 2013090645 A1; Campisi, J. (2015). Cancer and Aging: Rival Demons]. […] To test the efficacy of A1.1, irradiated (11 Gy followed by bone-marrow transplantation) and non-irradiated C57BL/6 mice received B16 melanoma cells via tail vein injection were subsequently (72 hours later) administered A1.1 (20 mg/kg) intraperitoneally once a day for 5 consecutive days.
# Synthesized analogs were also tested in vivo, to assess whether optimized structures are capable of showing activity against senescence-mediated B16 lung metastasis in irradiated mice (FIG. 4B). Analogs A1.1, A1.12, A1.13, A1.14, A1.15, and A1.6 were administered at 20 mg/kg intraperitoneally for 5 consecutive days. In addition to A1.1, treatment with analogs A1.12, A1.14 and A1.15 at 20 mg/kg reduced the metastatic burden in the lungs of irradiated mice by more than 2-fold.
# [4] = test system: A549 lung adenocarcinoma cells; assay: Anti-senescent cytotoxicity, senescent vs proliferating A549; assay type: cell-based, Human; conditions: for IC50: Homo sapiens
# [5] = test system: mLF primary lung fibroblasts; assay: Anti-senescent cytotoxicity, senescent vs proliferating mLF; assay type: cell-based, Mouse; conditions: for IC50: Mus musculus, Primary lung fibroblast
# Method: For generation senescent human neonatal dermal fibroblasts (NDFs) and adult rat dermal fibroblasts (RDFs), cells are treated at ˜10 ug/ml bleomycin for 3 days (for bleomycin-induced senescence) or irradiated once at 20 Gy using a gamma irradiator (Cs source), followed by at least 7 day recovery in fresh medium for induction of senescence. Senescent and non-senescent (proliferating) cells for each cell line are plated into 384-w plate, followed by 72 hour exposure to a dose titration of compounds. Viability measurements are estimated using the resazurin viability assay. Using GraphPad Prism 5, the IC50 values are calculated from the non-linear regression of log-transformed compound concentrations versus dose-response normalized to background and non-treated controls.
# Anti-senescent selectivity is observed in primary human dermal fibroblasts (NDFs) induced to senescence via genotoxic stress, oxidative stress and replicative stress. In addition, human, rat and mouse cells senesced via bleomycin and irradiation all show sensitivity towards A1.1 treatment compared to A1.1-treated naïve cell controls.
# [6] = test system: SK-Mel-103 melanoma cells; assay: Anti-senescent cytotoxicity, senescent vs proliferating SK-Mel-103; assay type: cell-based, Human; conditions: for IC50: Homo sapiens
# [7] = test system: human neonatal dermal fibroblasts (NDF); assay: Resazurin viability assay, senescent vs proliferating/quiescent human neonatal dermal fibroblasts; assay type: cell-based; conditions: for IC50: Homo sapiens, Fibroblast
# [8] = test system: mSQ primary adipose-derived mesenchymal stromal cells; assay: Anti-senescent cytotoxicity, senescent vs proliferating mSQ; assay type: cell-based, Mouse; conditions: for IC50: Mus musculus
molecule,measurement,setting,value
Poly(I:C),"luminescence of other tissues (spleen, lungs, kidney, liver)",[1]; 83-weeks old mice,no significant effects
same,reduction in luminescence from visceral adipose tissue,"[1]; 83-weeks old mice, IVIS of organs",~4 fold
same,luciferase activity from isolated stromal vascular fraction vs saline,[1]; per cell or per gram of fat,significantly decreased
same,in vivo bioluminescence / elevated p16(Ink4a) expression,[2],complete abrogation of signal
same,viability of lavage cells,"[2]; mouse, in vivo",> 95%
same,β-galactosidase activity of lavage cells,"[2]; mouse, in vivo",no effect
same,proportion of CD11b+ F4/80+ macrophages,[2]; peritoneal lavage,no difference
same,decrease in luciferase activity per lavage cell vs non-treated controls,[2]; peritoneal lavage cells,> 6 fold
O=C(NCCCc1cn[nH]c1)c1ccc(-c2ccncc2)c(C#Cc2ccc(F)cc2)c1 [OT-82],basal and inducible activity of NF-κB,NF-κB,inhibits both basal and inducible activity
"COc1ccc(C2CC(=NO)c3c(SCc4ccccc4)sc(C(=O)NCc4cccc(F)c4)c3C2)cc1 (centres unmarked) [Example A1.6, 3-(Benzylthio)-N-(3-fluorobenzyl)-4-(hydroxyimino)-6-(4-methoxyphenyl)-4,5,6,7-tetrahydrobenzo[c]thiophene-1-carboxamide]",reduction of B16 metastatic load in the lungs of irradiated mice vs vehicle,"[3]; 20 mg/kg intraperitoneally once a day for 5 consecutive days, irradiated (11 Gy) C57BL/6 mice",did not show a substantial decrease
CCOC(=O)c1sc(SCc2ccccc2)c2c1CC(c1ccc(OC)cc1)C/C2=N\O (centres unmarked) [Example A1.1],Selectivity (Prolif/Sen),"[4]; A549, Bleomycin",3.7
same,Selectivity (Prolif/Sen),"[4]; A549, Irradiation",4.5
same,IC50,"[4]; light or radiation study, A549, senescence induction: Irradiation, read-out: Activity against Senescent Cells (IC50; uM)",3.7 µM
same,IC50,"[4]; A549, senescence induction: Bleomycin, read-out: Activity against Senescent Cells (IC50; uM)",4.5 µM
same,IC50,"[4]; A549 proliferating, read-out: Activity against Proliferating Cells (IC50; uM)",16.5 µM
same,tumor burden in non-irradiated animals,"[3]; 20 mg/kg intraperitoneally, 5 consecutive days, non-irradiated mice",did not affect
same,IC50,"[5]; light or radiation study, mLF, senescence induction: Irradiation, read-out: Activity against Senescent Cells (IC50; uM)",4 µM
same,IC50,"[5]; mLF proliferating, read-out: Activity against Proliferating Cells (IC50; uM)",10.6 µM
same,IC50,"[5]; mLF, senescence induction: Bleomycin, read-out: Activity against Senescent Cells (IC50; uM)",7.1 µM
same,Selectivity (Prolif/Sen),"[5]; mLF, Bleomycin",1.5
same,Selectivity (Prolif/Sen),"[5]; mLF, Irradiation",2.7
same,IC50,"[6]; SK-Mel-103, senescence induction: Bleomycin, read-out: Activity against Senescent Cells (IC50; uM)",5.6 µM
same,IC50,"[6]; SK-Mel-103 proliferating, read-out: Activity against Proliferating Cells (IC50; uM)",18.5 µM
same,Selectivity (Prolif/Sen),"[6]; SK-Mel-103, Bleomycin",3.3
same,sensitivity of senescent vs acutely damaged or proliferating NDF cells,"[7]; 1.875-30 μM, 72 hours, bleomycin or 15 Gy senescent vs 4 Gy acutely damaged",greater sensitivity
same,IC50,"[7]; NDF proliferating, read-out: Activity against Proliferating Cells (IC50; uM)",18.7 µM
same,IC50,"[7]; NDF, senescence induction: Bleomycin, read-out: Activity against Senescent Cells (IC50; uM)",3.5 µM
same,IC50,"[7]; NDF, senescence induction: Busulfan, read-out: Activity against Senescent Cells (IC50; uM)",3.6 µM
same,IC50,"[7]; NDF, senescence induction: Doxorubicin, read-out: Activity against Senescent Cells (IC50; uM)",5.1 µM
same,IC50,"[7]; NDF, senescence induction: Etoposide, read-out: Activity against Senescent Cells (IC50; uM)",3.8 µM
same,IC50,"[7]; NDF, senescence induction: H2O2, read-out: Activity against Senescent Cells (IC50; uM)",3.2 µM
same,IC50,"[7]; NDF, senescence induction: H-Ras, read-out: Activity against Senescent Cells (IC50; uM)",8.9 µM
same,IC50,"[7]; NDF, senescence induction: Replicative (late passage), read-out: Activity against Senescent Cells (IC50; uM)",10.5 µM
same,IC50,"[7]; light or radiation study, NDF, senescence induction: Irradiation, read-out: Activity against Senescent Cells (IC50; uM)",6.5 µM
same,Selectivity (Prolif/Sen),"[7]; NDF, Busulfan",5.3
same,Selectivity (Prolif/Sen),"[7]; NDF, Doxorubicin",3.7
same,Selectivity (Prolif/Sen),"[7]; NDF, Etoposide",4.9
same,Selectivity (Prolif/Sen),"[7]; NDF, H2O2",5.9
same,Selectivity (Prolif/Sen),"[7]; NDF, H-Ras",2.1
same,Selectivity (Prolif/Sen),"[7]; NDF, Replicative (late passage)",1.8
same,number of viable senescent NDF cells,"[7]; concentrations as low as 2.5 μM, doxorubicin-, bleomycin- and gamma-irradiation-induced senescence, 72 hours",significantly reduced
same,IC50,"[8]; light or radiation study, mSQ, senescence induction: Irradiation, read-out: Activity against Senescent Cells (IC50; uM)",9.9 µM
same,IC50,"[8]; mSQ proliferating, read-out: Activity against Proliferating Cells (IC50; uM)",14.7 µM
same,IC50,"[8]; mSQ, senescence induction: Bleomycin, read-out: Activity against Senescent Cells (IC50; uM)",6.7 µM
same,Selectivity (Prolif/Sen),"[8]; mSQ, Bleomycin",2.2
same,Selectivity (Prolif/Sen),"[8]; mSQ, Irradiation",1.5
IFN-α,in vivo bioluminescence / elevated p16(Ink4a) expression,[2],abrogates
